According to ChEMBL document CHEMBL1145358, “2-Phenyl-2,3-dihydro-1H-imidazo[1,2-b]pyrazole derivatives: new potent inhibitors of fMLP-induced neutrophil chemotaxis” (Bioorg Med Chem Lett, 2007):
pIC50, pKi: −log10 of the molar value.

Key:
[1] = Inhibition of fMLP-OMe-induced chemotaxis in human neutrophils; type: functional
fMet-Leu-Phe receptor = biological target: T1, fMet-Leu-Phe receptor (Homo sapiens, UniProt P21462); test: Displacement of [3H]-fMLP from FPR in human neutrophils
T1 sequence (P21462 whole entry): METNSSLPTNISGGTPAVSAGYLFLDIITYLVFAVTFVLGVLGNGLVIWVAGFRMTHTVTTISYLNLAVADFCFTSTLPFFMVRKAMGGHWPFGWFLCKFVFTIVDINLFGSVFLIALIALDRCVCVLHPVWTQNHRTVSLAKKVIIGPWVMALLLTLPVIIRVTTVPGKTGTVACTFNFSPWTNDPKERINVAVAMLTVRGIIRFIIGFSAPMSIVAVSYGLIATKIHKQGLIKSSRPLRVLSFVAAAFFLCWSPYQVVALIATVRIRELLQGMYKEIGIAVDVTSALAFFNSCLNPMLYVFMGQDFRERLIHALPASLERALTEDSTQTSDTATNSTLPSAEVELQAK

Row | SMILES | pIC50 [1] | pKi (fMet-Leu-Phe receptor)
1 | CC(C)(C)NC(=O)c1cnn2c1NC(c1ccccc1)C2 (centres undefined) | 8.12 | < 5.00
2 | NC(=O)c1cnn2c1NC(c1ccccc1)C2 (centres undefined) | 8.44 | < 5.00
3 | O=C(NCc1ccccc1)c1cnn2c1NC(c1ccccc1)C2 (centres undefined) | 5.00 | < 5.00
4 | O=C(c1cnn2c1NC(c1ccccc1)C2)N1CCCCCC1 (centres undefined) | 9.00 | < 5.00
5 | O=C(O)c1cnn2c1NC(c1ccccc1)C2 (centres undefined) | 8.94 | < 5.00
6 | O=C(c1cnn2c1NC(c1ccccc1)C2)N1CCOCC1 (centres undefined) | 6.52 | < 5.00
7 | O=C(c1cnn2c1NC(c1ccccc1)C2)N1CCN(Cc2ccccc2)CC1 (centres undefined) | 7.57 | < 5.00
8 | O=C(NC1CC1)c1cnn2c1NC(c1ccccc1)C2 (centres undefined) | 9.32 | < 5.00
9 | O=C(c1cnn2c1NC(c1ccccc1)C2)N1CCCC1 (centres undefined) | 5.05 | < 5.00
10 | c1ccc(C2Cn3nccc3N2)cc1 (centres undefined) | 7.54 | < 5.00
11 | O=C(c1cnn2c1NC(c1ccccc1)C2)N1CCCCC1 (centres undefined) | 8.83 | < 5.00
12 | CCOC(=O)c1cnn2c1NC(c1ccccc1)C2 (centres undefined) | 5.62 | < 5.00
